{"source": "patent US10278958B2", "about": "“IPA as a protective agent” (IXCELA, INC., priority 2012, dated 2019)", "key": {"[1]": {"tested_on": "plasma proteins both albumin and imunoglobulins", "assay_type": "in vitro ADME", "text": "(§1) IPA is an indole produced in organisms such as c. Sporogenes that have the enzyme to remove the OH from the 2 position on the propionic acid side chain of indole lactic acid an end product of tryptophan metabolism in mammalian species. It is one of several gut metabolites that affect the plasma metabolome. Other organisms such as brewers yeast also show the ability to produce IPA (Sec below a means of producing purified IPA preparations using brewers yeast or similar organisms). […] We have shown that on free radical attack the intermediate positive ion free radical binds to protein as a kynuric acid moiety. […] We also have identified two metabolites of IPA that allow monitoring of levels in excretion samples such as urine which correlate with plasma and brain levels."}, "[2]": {"tested_on": "whole human plasma", "experiment": "Binding constants for I3PA by serial additions, whole human plasma", "details": "whole human plasma vs ubiquitin", "text": "(§2) In ancillary studies we measured the parent binding constants for I3PA with whole human plasma, HSA, BSA and ubiquitin using serial additions of I3PA to determine the number of molar equivalents of binding sites and mole equivalents of free I3PA. The binding constants (pk) for whole human plasma, HSA and BSA are one the order of 10^3 or greater than for ubiquitin alone. […] Thus, efforts to increase the yield of covalently bound kynuric acid were prevented by over generation of non-covalently bound material. We then decided to attempt this Fenton reaction with I3PA using angiotensin I as the peptide target."}, "[3]": {"biological_target": "BSA (Bos taurus, UniProt P02769)", "sequence (P02769 25-607)": "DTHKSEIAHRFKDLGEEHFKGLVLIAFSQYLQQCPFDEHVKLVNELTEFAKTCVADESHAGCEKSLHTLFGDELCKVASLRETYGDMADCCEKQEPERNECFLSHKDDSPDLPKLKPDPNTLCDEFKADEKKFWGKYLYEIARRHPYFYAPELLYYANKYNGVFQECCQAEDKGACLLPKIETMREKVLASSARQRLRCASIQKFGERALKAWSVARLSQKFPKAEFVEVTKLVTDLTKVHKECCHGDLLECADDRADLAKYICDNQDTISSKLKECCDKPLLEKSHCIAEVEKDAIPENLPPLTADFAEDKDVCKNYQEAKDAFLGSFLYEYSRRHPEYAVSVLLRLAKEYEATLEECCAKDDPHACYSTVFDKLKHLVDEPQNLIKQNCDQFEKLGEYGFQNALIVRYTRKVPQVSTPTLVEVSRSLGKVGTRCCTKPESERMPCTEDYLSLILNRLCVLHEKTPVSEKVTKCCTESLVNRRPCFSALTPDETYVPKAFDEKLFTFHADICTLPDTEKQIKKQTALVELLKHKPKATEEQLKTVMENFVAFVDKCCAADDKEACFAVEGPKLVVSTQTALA", "assay_type": "binding", "text": "as §2"}, "[4]": {"experiment": "Stability of IPA in plasma at room temperature", "assay_type": "in vitro ADME", "details": "after 7 days at room temperature", "text": "FIG. 26 illustrates the first criterion for selecting compounds for targeted methods is that is a progressive biomarkers—as shown by the trend from C to PMHD to HD in the left hand panel for IPA. A practical criterion is stability. […] Method development then involves integrating simplest preparative and instrument protocols for speed and minimum sample size and interferences. A preparative protocol using a simple 3:1 addition of methanol to plasma centrifuging and injecting supernate was matched to a mobile phase, column and detector settings allowing sensitivity to 2 ng/ml, linearity across the range and analysis with no currently determined interferences. […] The third panel illustrates the application of the method to mouse urine in a dose loading study of IPAM showing two metabolites in dosed animals (green) and the same two metabolites in un dosed mice (blue) and in human urine (red)."}, "[5]": {"experiment": "Distribution of gut-produced IPA to plasma, brain and CSF", "assay_type": "in vivo, HD mouse models and human", "details": "for crossing of the blood-brain-barrier: gut-produced IPA, brain and CSF", "text": "as §1"}, "[6]": {"experiment": "Fenton reaction: disappearance of I3PA", "assay_type": "physicochemical", "details": "100 μM H2O2, 10 μM iron sulfate, 100 μM I3PA, 4° C. in the dark, 2 h", "experimental": "The reaction mixture was kept at 4° C. in the dark. Every 30 min, a small aliquot of the reaction mixture was diluted 1:10 and injected onto the offline LC-EC array system."}, "[7]": {"tested_on": "brewers yeast protein", "experiment": "Binding of IPA to brewers yeast protein (10K MW filter) and release in HCl", "assay_type": "physicochemical", "details": "supernate through a 10K MW filter", "text": "In yet another aspect of the disclosure we provide a method for preparation of purified indole therapies. Indoles as a class are subject to degradation and contamination such as the problem encountered with preparations of tryptophan that were related to development basal eosinophilia. Nominally pure commercial sources of indoles when evaluated using ultra-sensitive LCECA techniques show traces of other compounds from the […] to (pg/mg) levels (part per billion to sub part per trillion). These are potentially harmful. Pharmaceutical grade and supplemental tryptophan has now been brought to levels high purity that can be verified by LCECA. To take advantage of this we have developed a protocol for creating high concentrations of IPA using brewers yeast which also produces IPA with relatively good efficiency operating on a substrate of glucose and tryptophan. Brewers yeast as such is a common supplement and present as an extract in typical research mouse feed. Production of IPA in this matrix provides a highly purified IPA in a verifiably and long accepted matrix. As an example a preparation of 1 g of brewers yeast, 500 mg of glucose and 50 mg of tryptophan allowed to incubate to completion at room temperature (90-120 min) in 35 ml of distilled water yields ca. 3 mg of IPA. […]"}, "[8]": {"tested_on": "E. coli", "details": "culture studies; cited from earlier work"}, "[9]": {"tested_on": "Alzheimer β-amyloid protein", "details": "two examples of oxidative stress; cited from earlier work"}, "[10]": {"tested_on": "ischemia-induced neuronal damage", "details": "mice and hamsters; by reducing DNA damage and lipid peroxidation; cited from earlier work"}, "[11]": {"tested_on": "protein aggregation", "details": "in vitro; cited from earlier work"}, "[12]": {"experiment": "Loading study of IPAM in R6/2 HD mice", "assay_type": "in vivo, mouse", "experimental": "A cohort of R6/2 HD mice were dosed daily for 3 weeks intra peritoneal with 200 ug of the IPA derivative amide indole propionamide (IPAM) and compared with undosed R6/2 and their wild type littermates. Feces and urine were collected at the time of sacrifice and blood and brain after sacrifice. The data indicates: • 1. That the brain and plasma levels correlate with urinary levels and thus animals can be tracked in a drug trial without sacrifice. • 2. […] The R6/2 levels of IPA in brain and plasma are lower than in wild type mice. In this study although feces levels were lower the decrease was not significant."}, "[13]": {"biological_target": "T1, ubiquitin (Homo sapiens, UniProt P0CG47)", "T1 construct": "A calculation of a theoretical value for ubiquitin ([M+H]^+ m/z 8560.6287)", "experiment": "Fenton reaction of I3PA with ubiquitin, high resolution MS", "experimental": "A Fenton reaction was performed using the same concentrations of hydrogen peroxide, iron sulfate and I3PA as discussed above. One microliter of a solution of ubiquitin prepared to a concentration of 10 mg/mi was added to the mixture. In addition, a separate tube containing only the Fenton reaction without ubiquitin was prepared and labeled as the negative control. The reaction was kept in the dark at 4° C. for 16 h.\nHigh resolution MS analysis of the reaction mixtures was performed using a 12-T Qh/FT-ICR hybrid mass spectrometer (SolariX, Bruker Daltonics) that was equipped with a nanospray source operated in the positive mode. Samples were diluted 1:10 in 50/50 methanol/water, 0.5% formic acid and analyzed on the SolariX. Detection of ions in the SolariX was obtained at a resolution of approximately 110,000."}, "[14]": {"biological_target": "T2, angiotensin I (Homo sapiens, UniProt P01019)", "T2 construct": "attempt this Fenton reaction with I3PA using angiotensin I as the peptide target; purchased The American Peptide Co", "experiment": "Fenton reaction of I3PA with angiotensin I, MS/MS", "experimental": "Angiotensin I was obtained from The American Peptide Co in Sunnyvale, Calif., USA. Six tubes were prepared with the following Fenton reaction mixtures: Tubes 1 and 4 contained 100 μM H2O2, 10 μM iron sulfate and 100 μM I3PA; Tubes 2 and 5 contained 100 μM H2O2, 100 μM iron sulfate and 100 μM I3PA. Tubes 3 and 6 contained 100 μM H2O2, 200 μM iron sulfate and 100 μM I3PA. Tubes 4, 5, and 6 also contained 1 μl of angiotensin I prepared to a concentration of 10 mg/ml. A separate tube containing only the Fenton reaction without angiotensin I was prepared and labeled as the negative control. The tubes containing the reaction mixtures were covered with aluminum wrap so that none of the reagents would deteriorate in the ambient light. All reaction mixtures were kept on ice. The tubes were left to react for 30 h.\nHigh resolution MS analysis of the reaction mixtures was performed using a 12-T Qh/FT-ICR hybrid mass spectrometer (SolariX, Bruker Daltonics) that was equipped with a nanospray source operated in the positive mode. Samples were diluted 1:2 in 50/50 methanol/water, 0.5% formic acid (for positive-ion mode) or 50/50 methanol/water, 0.05% triethylamine (TEA) (VWR Scientific, PA, USA) (for negative-ion mode) and were analyzed on the SolariX in positive and negative modes. Detection of ions in the SolariX was obtained at a resolution of approximately 110,000. […]"}}, "note": "“Also recorded” adds a separate entry of the source."}
{"compound": "O=C(O)CCc1c[nH]c2ccccc12", "note": "[IPA, indole-3-propionic acid]", "values": [{"measurement": "binding to plasma proteins", "setting": "[1]", "value": "strongly bound to plasma proteins"}, {"measurement": "free levels", "setting": "[1]", "value": "ca. 0.1 ng/ml"}, {"measurement": "loading capacity of plasma for IPA", "setting": "[1]", "value": "approximately 10 ug/ml"}, {"measurement": "normal plasma levels", "setting": "[1]", "value": "ca. 200 ug/ml"}, {"measurement": "binding constants (pk) relative to ubiquitin alone", "setting": "[2]", "value": "~10^3"}, {"measurement": "binding constants (pk) relative to ubiquitin alone", "setting": "[3]", "value": "~10^3"}, {"measurement": "degradation in plasma", "setting": "[4]", "value": 5, "unit": "%"}, {"measurement": "absorption", "setting": "[5]; animal model and human studies", "value": "best adsorbed through the gut"}, {"measurement": "crossing of the blood-brain-barrier", "setting": "[5]", "value": "crosses the BBB and is found in brain and CSF"}, {"measurement": "crossing of the blood-brain-barrier", "setting": "[5]; listed as I3PA", "value": "did cross the blood-brain-barrier; also recorded: crosses the blood-brain-barrier"}, {"measurement": "transfer from gut to plasma", "setting": "[5]; residual fecal levels vs plasma levels", "value": "majority of IPA produced is transferred to plasma"}, {"measurement": "oxidative stability in Fenton reaction", "setting": "[6]", "value": "disappearance of I3PA"}, {"measurement": "IPA coordinately bound to brewers yeast protein", "setting": "[7]", "value": "75-80%"}, {"measurement": "effect on other microbial species", "setting": "[8]", "value": "suppress other microbial species such as E. coli"}, {"measurement": "neuroprotection", "setting": "[9]", "value": "strong levels of neuroprotection"}, {"measurement": "protection of neurons", "setting": "[10]", "value": "protects neurons from ischemia-induced neuronal damage"}, {"measurement": "effect on protein aggregation", "setting": "[11]", "value": "suppress protein aggregation"}]}
{"compound": "indole propionamide [IPAM]", "values": [{"measurement": "conversion of IPAM to IPA", "setting": "[12]; intra peritoneal 200 ug daily for 3 weeks, R6/2 mice, blood/plasma vs gut", "value": "converted rapidly in the blood to IPA but less rapidly in the gut; also recorded: rapidly converted to IPA in the plasma; also recorded: converted rapidly to I3PA in plasma and less rapidly in the gut"}, {"measurement": "urinary metabolites", "setting": "[12]; mouse urine of dosed animals", "value": "probable glucuronide type Phase II metabolite compounds"}]}
{"compound": "kynuric acid", "values": [{"measurement": "binding of I3PA oxidation product to ubiquitin", "setting": "[13]", "value": "bound both covalently and co-coordinately"}, {"measurement": "covalent binding site on angiotensin I", "setting": "[14]", "value": "Tyr4"}]}
